Some results are limits rather than exact numbers.

The experiment deals with T1, recombinant human mPGES-1 (Homo sapiens, UniProt O14684).
T1 construct: made in house; host or cells: Rosetta E. coli (membrane/microsome fraction)
T1 sequence (O14684 1-152): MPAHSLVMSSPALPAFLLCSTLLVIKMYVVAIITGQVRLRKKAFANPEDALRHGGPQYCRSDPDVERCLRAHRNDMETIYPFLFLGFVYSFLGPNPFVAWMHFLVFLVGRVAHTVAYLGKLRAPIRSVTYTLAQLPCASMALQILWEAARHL
The experiment can be described thus: Assay A: mPGES-1 enzyme assay (HTRF detection of PGE2). The format is biochemical. Conditions: biological assay A; microsomes from E. coli expressing recombinant human mPGES-1; read-out: mPGES-1 inhibitory effect IC50. An excerpt:
The aim of this assay is to determine the affinity of a test compound for the mPGES-1 enzyme.
• 1. Riendeau, D., R. Aspiotis, D. Ethier, Y. Gareau, E. Grimm, J. Guay, S. Guiral, H. Juteau, J. Mancini, N. Methot, J. Rubin, and R. Friesen, Inhibitors of the inducible microsomal prostaglandin E2 synthase (mPGES-1) derived from MK-886. Bioorg Med Chem Lett, 2005. 15(14): p. 3352-3355. • 2. Cote, B., L. Boulet, C. Brideau, D. Claveau, D. Ethier, R. Frenette, M. Gagnon, A. Giroux, J. Guay, S. Guiral, J. Mancini, E. Martins, F. Masse, N. Methot, D. Riendeau, J. Rubin, D. Xu, H. Yu, Y. Ducharme, and R. Friesen, Substituted phenanthrene imidazoles as potent, selective, and orally active mPGES-1 inhibitors. Bioorg Med Chem Lett, 2007. 17(24): p. 6816-6820. Assay A: mPGES-1 Enzyme Assay List of Reagents Used: • Glutathione (Sigma, G-4251) • Freeze culture in Rosetta E coli expression strain. • LB growth media with Ampillicillin (Amp) final concentration in culture 50 μg/mL • Chloroamphenicol stock 34 mg/mL (chloro) final concentration in culture 34 μg/mL • Sterile growth flasks for 500 mL-1 liter cultures • 0.1 M KP, buffer pH 7.4 • 9.25% HCl • PGH2 (0.25 mM) • Fe (II) Cl2 tetrahydrate, 99% (Sigma, 220229) • 384-well plate with compounds • 96-well plate, polypropylene (Thermo fast 96 skirted VWR) • 384-well plate polypropylene PCR plate (Greiner 785201) • Greiner 384-well plate pp (In vitro cat. no. 781280) • Adhesive sealing film for 96-well plates (Sigma-Aldrich) • Aluminium foil (PCR foil, 310-0030-127-471 from Labora) • PBS (GIBCO 14040) • Prostaglandin E2 Assay (Cisbio, cat. no. 62P2APEC) • Biomek FX robot (Beckman Coulter) • Biomek NX robot (Beckman Coulter) • Multidrop; micro or combi (ThermoLabsystems) • Plate reader: Safire2 (Tecan)
Microsomes from Rosetta E. coli bacteria expressing recombinant human mPGES-1 can be derived as described below:
Inoculate 5 mL LB with Amp and Chloro with bacteria from freeze culture. Incubate overnight at 37° C. with 200 rpm. Thereafter, inoculate 500-800 mL LB containing Amp and Chloro with the 5 mL on culture and grow to OD640 of 0.6-0.8. Chill the culture to +4° C. before induction. Induce the culture with IPTG at a final concentration of 400 μM. Express the protein at room temp 18-23° C. with 200 rpm shaking overnight.
The following steps can be performed on the following day: • 1. Spin down the cells in 250 mL centrifuge flasks for 15 min at 7000 rpm • 2. Dissolve the pellet from 250 mL culture in 12.5 mL homogenization buffer • 3. Disintegrate the cells by sonication, 4×10 seconds at 35% amplitude • 4. Add 2.5 mL MgCl2 (100 mM) and DNase 12.5 μL (0.8 mg/mL) and incubate on ice for 30 min • 5. Spin down the bacteria debris and save the supernatant, 7000 rpm for 15 min • 6. Isolate the protein containing membranes in the supernatant by ultracentrifugation 45000×g for 1 hour. • 7. Discard the supernatant and dissolve the pellet in 20 mM KPi buffer and aliquot the enzyme and store aliquots at −80° C.
Before each experiment is performed an aliquot of the enzyme is thawed and it can then be dissolved in 0.1 M KP, pH 7.4 buffer containing 2.5 mM GSH. 50 μL of this enzyme solution is subsequently dispensed in a 384-well plate at room temperature. 0.5 μL of the inhibitor dissolved in DMSO is thereafter added to each well and incubated for 25 minutes at room temperature. Subsequently, 2 μL of PGH2 dissolved in an appropriate solvent is added to each well and after one minute at room temperature, the acidified stop solution containing FeCl2 is added. 4 μL of the total volume is transferred to a separate plate and diluted 750-fold in two separate steps before quantification of PGE2.
In order to quantitate the amount of PGE2 that has been formed, a homogenous time resolved fluorescent (HTRF) detection of PGE2 can be performed by the use of a commercially available kit from CisBio essentially according to the manufacturer's protocol. […]
Background: Time-resolved FRET reads energy transfer from a long-lived donor to a nearby acceptor.
The term IC50 denotes the concentration at which inhibition is half-maximal. For `Cn1c(Nc2cc(CNC(=O)C(C)(N)C(F)(F)F)ccc2Cl)nc2cc(Cl)c(N3CCCC(C(F)(F)F)C3)cc21` (centres unmarked) [Example 1, 2-Amino-N-{4-chloro-3-[5-chloro-1-methyl-6-(3-(trifluoromethyl)piperidin-1-yl)-1H-benzo[d]imidazol-2-ylamino]benzyl}-3,3,3-trifluoro-2-methylpropanamide], the IC50 was 2.5 nM. Then `CC(C)(C)C(=O)NCc1ccc(Cl)c(Nc2nc3cc(N4CCC(F)(F)C4)c(Cl)cc3[nH]2)c1` [Example 2, N-{4-Chloro-3-[6-chloro-5-(3,3-difluoropyrrolidin-1-yl)-1H-benzo[d]imidazol-2-ylamino]benzyl}-2,2-dimethyl-propionamide], with 19 nM; and `CN(C)CC1CCN(c2cc3[nH]c(Nc4cc(CNC(=O)C(C)(C)C)ccc4Cl)nc3cc2Cl)C1` (centres unmarked) [Example 3, N-{4-Chloro-3-[5-chloro-6-(3-dimethylaminomethyl-pyrrolidin-1-yl)-1H-benzimidazol-2-ylamino]-benzyl}-2,2-dimethyl-propionamide], with 715 nM. Consider `CC(C)(C)C(=O)NCc1ccc(Cl)c(Nc2nc3cc(Cl)c(N4CCC5(CC5)C4)cc3[nH]2)c1` [Example 4, N-{3-[6-(5-Aza-spiro[2.4]hept-5-yl)-5-chloro-1H-benzimidazol-2-ylamino]-4-chloro-benzyl}-2,2-dimethyl-propionamide], for which the IC50 came out at 24 nM. Consider `Cn1c(Nc2c(Cl)ccc(CNC(=O)C(C)(C)C)c2Cl)nc2cc(Cl)c(N3CCC(C(F)(F)F)CC3)cc21` [Example 5, N-{2,4-Dichloro-3-[5-chloro-1-methyl-6-(4-trifluoromethyl-piperidin-1-yl)-1H-benzimidazol-2-ylamino]-benzyl}-2,2-dimethyl-propionamide], for which the IC50 worked out at 3.8 nM. For `CN(C)C(=O)C1CCCN1c1cc2[nH]c(Nc3cc(CNC(=O)C(C)(C)C)ccc3Cl)nc2cc1Cl` (centres unmarked) [Example 6, N-{4-Chloro-3-[5-chloro-6-(2-dimethylcarbamoyl-pyrrolidin-1-yl)-1H-benzimidazol-2-ylamino]-benzyl}-2,2-dimethyl-propionamide], the IC50 was 215 nM. Next, `CN(C)CC1CCCN1c1cc2[nH]c(Nc3cc(CNC(=O)C(C)(C)C)ccc3Cl)nc2cc1Cl` (centres unmarked) [Example 7, N-{4-Chloro-3-[5-chloro-6-(2-dimethylaminomethyl-pyrrolidin-1-yl)-1H-benzimidazol-2-ylamino]-benzyl}-2,2-dimethyl-propionamide]: 74 nM. `CC(C)(C)C(=O)NCc1ccc(Cl)c(Nc2nc3cc(Cl)c(N4CCC(C#N)C4)cc3[nH]2)c1` (centres unmarked) [Example 8, N-{4-Chloro-3-[5-chloro-6-(3-cyano-pyrrolidin-1-yl)-1H-benzimidazol-2-ylamino]-benzyl}-2,2-dimethyl-propionamide]: the IC50 was found to be 106 nM. Then `O=C(NCc1ccc(Cl)c(Nc2nc3cc(Cl)c(N4CCC[C@@H]4CO)cc3[nH]2)c1)C1(C(F)(F)F)CC1` [Example 9, (R)—N-{4-Chloro-3-[5-chloro-6-(2-hydroxymethyl-pyrrolidin-1-yl)-1H-benzimidazol-2-ylamino]-benzyl}-1-trifluoromethyl-cyclopropanecarboxamide], with 143 nM; and `Cn1c(Nc2cc(CNC(=O)C3(C(F)(F)F)CC3)ccc2Cl)nc2cc(Cl)c(N3CCOCC3)cc21` [Example 10], with 31 nM. As to `CN1CCN(c2cc3c(cc2Cl)nc(Nc2cc(CNC(=O)C4(C(F)(F)F)CC4)ccc2Cl)n3C)CC1` [Example 11, N-{4-Chloro-3-[5-chloro-1-methyl-6-(4-methyl-piperazin-1-yl)-1H-benzimidazol-2-ylamino]-benzyl}-1-trifluoromethyl-cyclopropanecarboxamide], the IC50 amounted to 140 nM.

For `CC(C(=O)NCc1ccc(Cl)c(Nc2nc3cc(Cl)c(N4CCCC(C(F)(F)F)C4)cc3n2C)c1)C(F)(F)F` (centres unmarked) [Example 13], the IC50 was determined as 2.6 nM. In the case of `Cn1c(Nc2cc(CNC(=O)C(C)(O)C(F)(F)F)ccc2Cl)nc2cc(Cl)c(N3CCCC(C(F)(F)F)C3)cc21` (centres unmarked) [Example 14], the IC50 turned out to be 4.8 nM. In the case of `Cn1c(Nc2cc(CNC(=O)C(C)(F)F)ccc2Cl)nc2cc(Cl)c(N3CCCC(C(F)(F)F)C3)cc21` (centres unmarked) [Example 15], the IC50 is 3 nM. Next, `CCC(C)(CC)C(=O)NCc1ccc(Cl)c(Nc2nc3cc(N4CCCC4)ccc3[nH]2)c1` [Example 16]: 15 nM; `CC(C)(C(=O)NCc1ccc(Cl)c(Nc2nc3cc(N4CCCC4)ccc3[nH]2)c1)C(F)(F)F` [Example 17]: 24 nM.

For `CCCC(C)(C)C(=O)NCc1ccc(Cl)c(Nc2nc3cc(N4CCCC4)ccc3[nH]2)c1` [Example 18], the IC50 worked out at 79 nM. Take `CC1CCCCC1C(=O)NCc1ccc(Cl)c(Nc2nc3cc(N4CCCC4)ccc3[nH]2)c1` (centres unmarked) [Example 19]: the IC50 was 52 nM. With `CC(C)(C)C(=O)NCc1ccc(Cl)c(Nc2nc3cc(N4CCCC4)ccc3[nH]2)c1` [Example 20], the IC50 was above 100 nM. Then `O=C(NCc1ccc(Cl)c(Nc2nc3cc(N4CCCC4)ccc3[nH]2)c1)c1ccc(OCc2ccccc2)cc1` [Example 21], with 30 nM; and `CC1(C(=O)NCc2ccc(Cl)c(Nc3nc4cc(N5CCCC5)ccc4[nH]3)c2)CCCC1` [Example 28], with 24 nM. Regarding `O=S(=O)(NCc1ccc(Cl)c(Nc2nc3cc(N4CCCC4)ccc3[nH]2)c1)c1ccco1` [Example 29], the IC50 was determined as 105 nM.

In the case of `O=S(=O)(NCc1ccc(Cl)c(Nc2nc3ccc(N4CCCC4)cc3[nH]2)c1)C1CC1` [Example 30, N-{4-Chloro-3-[5-(pyrrolidin-1-yl)-1H-benzimidazol-2-ylamino]-benzyl}cyclopropylsulfonamide], the IC50 turned out to be 300 nM. Take `Cn1c(Nc2cc(CNC(=O)c3c(Cl)cncc3Cl)ccc2Cl)nc2cc(Cl)c(N3CCCC(C(F)(F)F)C3)cc21` (centres unmarked) [Example 54]: the IC50 was found to be 6.6 nM. Next, `Cn1c(Nc2cc(CNC(=O)C(N)C(F)(F)F)ccc2Cl)nc2cc(Cl)c(N3CCCC(C(F)(F)F)C3)cc21` (centres unmarked) [Example 65]: 15 nM; `Cn1c(Nc2cc(CNC(=O)C3(C)COC3)ccc2Cl)nc2cc(Cl)c(N3CCCC(C(F)(F)F)C3)cc21` (centres unmarked) [Example 66]: 10 nM; `Cn1c(Nc2cc(CNC(=O)c3c(Cl)cccc3Cl)ccc2Cl)nc2cc(Cl)c(N3CCCC(C(F)(F)F)C3)cc21` (centres unmarked) [Example 68]: 4 nM. For the molecule `Cn1c(Nc2cc(CNC(=O)c3c(F)cccc3C(F)(F)F)ccc2Cl)nc2cc(Cl)c(N3CCCC(C(F)(F)F)C3)cc21` (centres unmarked) [Example 69], the IC50 was found to be 9 nM. `Cn1c(Nc2cc(CNC(=O)C3(C(F)(F)F)CC3)ccc2Cl)nc2cc(Cl)c(N3CCC(C(F)(F)F)CC3)cc21` [Example 71, N-{4-Chloro-3-[5-chloro-1-methyl-6-(4-trifluoromethyl-piperidin-1-yl)-1H-benzimidazol-2-ylamino]benzyl}-1-trifluoromethyl-cyclopropaneamide]: the IC50 worked out at 2.5 nM.

The values are drawn from patent US8466186B2, “Compounds” (Boehringer Ingelheim International GmbH, priority 2010, dated 2013).
